Test results from article PMC9558907, “Synthesis and pharmacological evaluation of newly detected synthetic cannabinoid receptor agonists AB-4CN-BUTICA, MMB-4CN-BUTINACA, MDMB-4F-BUTICA, MDMB-4F-BUTINACA and their analogs” (Frontiers in Psychiatry, 2022).

What was measured:
human CB1 [1] = biological target: T1, human CB1 (Homo sapiens, UniProt P21554); test: competitive radioligand binding assay, displacement of [3H]CP55,940, HEK cell membranes; parameters: expressed in transfected cells; host or cells: HEK293 cells, P2 membrane preparation; details: [3H]CP55,940 1 nM
human CB1 [2] = biological target: T1, human CB1; test: fluorescence-based membrane potential assay (GIRK activation) in AtT20 cells; type: cell-based; parameters: expressed in transfected cells; host or cells: mouse AtT20 FlpIn cells; details: for hCB1 Emax ±SEM: normalised to 1 μM CP55,940; for hCB1 maximal response at 10 μM (footnote d): highest concentration tested, curve not fitted
human CB2 [3] = biological target: T2, human CB2 (Homo sapiens, UniProt P34972); test: competitive radioligand binding assay, displacement of [3H]CP55,940, HEK cell membranes; parameters: expressed in transfected cells; host or cells: HEK293 cells, P2 membrane preparation; details: [3H]CP55,940 1 nM
human CB2 [4] = biological target: T2, human CB2; test: fluorescence-based membrane potential assay (GIRK activation) in AtT20 cells; type: cell-based; parameters: expressed in transfected cells; host or cells: mouse AtT20 FlpIn cells; details: for hCB2 Emax ±SEM: AtT20-hCB2, normalised to 1 μM CP55,940; for EC50: hCB2 EC50, AtT20-hCB2, value in brackets after pEC50
[5] = hCB1 Ki, value in brackets after pKi
[6] = hCB1 EC50, AtT20-hCB1, value in brackets after pEC50
[7] = hCB2 Ki, value in brackets after pKi
[8] = hCB1 pEC50 ±SEM, AtT20-hCB1, DNC = did not converge, ND = < 50% change in fluorescence at 10 μM
[9] = hCB2 pKi ±SEM, mean ± SEM of 3 to 6 independent experiments
[10] = AtT20-hCB1, DNC = did not converge, ND = < 50% change in fluorescence at 10 μM
[11] = hCB1 pKi ±SEM, mean ± SEM of 3 to 6 independent experiments

T2 sequence (P34972 whole entry): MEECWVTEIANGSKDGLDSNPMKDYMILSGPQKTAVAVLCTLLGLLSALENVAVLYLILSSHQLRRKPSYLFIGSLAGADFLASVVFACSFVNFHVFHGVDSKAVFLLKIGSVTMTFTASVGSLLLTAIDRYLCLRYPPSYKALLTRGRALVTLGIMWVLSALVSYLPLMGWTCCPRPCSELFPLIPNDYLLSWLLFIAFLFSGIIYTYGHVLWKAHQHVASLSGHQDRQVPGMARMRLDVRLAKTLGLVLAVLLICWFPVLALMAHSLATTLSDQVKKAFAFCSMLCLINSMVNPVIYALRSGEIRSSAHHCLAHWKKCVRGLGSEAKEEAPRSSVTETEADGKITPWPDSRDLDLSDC
T1 sequence (P21554 whole entry): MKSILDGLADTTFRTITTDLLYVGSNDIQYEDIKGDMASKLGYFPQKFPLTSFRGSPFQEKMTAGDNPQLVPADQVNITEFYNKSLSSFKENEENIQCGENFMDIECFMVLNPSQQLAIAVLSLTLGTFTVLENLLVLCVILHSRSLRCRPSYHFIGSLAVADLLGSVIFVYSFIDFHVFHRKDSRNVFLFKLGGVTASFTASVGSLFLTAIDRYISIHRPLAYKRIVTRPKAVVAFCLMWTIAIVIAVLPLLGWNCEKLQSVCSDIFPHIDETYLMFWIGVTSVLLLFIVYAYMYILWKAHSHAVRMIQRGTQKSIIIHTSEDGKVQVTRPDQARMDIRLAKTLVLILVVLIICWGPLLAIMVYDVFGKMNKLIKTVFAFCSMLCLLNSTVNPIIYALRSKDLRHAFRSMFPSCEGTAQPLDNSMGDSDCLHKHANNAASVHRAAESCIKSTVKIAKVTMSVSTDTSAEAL

CC(C)[C@H](NC(=O)c1cn(CCCCC#N)c2ccccc12)C(N)=O [Compound 5, (S)-N-(1-amino-3-methyl-1-oxobutan-2-yl)-1-(4-cyanobutyl)-1H-indole-3-carboxamide]
Ki (human CB1 [1]; [5]): 550 nM
hCB1 Emax ±SEM (human CB1 [2]; AtT20-hCB1): 111 ± 5 % CP55,940
EC50 (human CB1 [2]; [6]): 400 nM
Ki (human CB2 [3]; [7]): 603 nM
melting point: 177 to 180 °C
hCB2 Emax ±SEM (human CB2 [4]): 100 ± 2 % CP55,940
EC50 (human CB2 [4]): 75.9 nM

COC(=O)[C@@H](NC(=O)c1nn(CCCCC#N)c2ccccc12)C(C)C [Compound 6, methyl (1-(4-cyanobutyl)-1H-indazole-3-carbonyl)-L-valinate]
Ki (human CB1 [1]; [5]): 17.4 nM
hCB1 Emax ±SEM (human CB1 [2]; AtT20-hCB1): 117 ± 6 % CP55,940
EC50 (human CB1 [2]; [6]): 3.61 nM
Ki (human CB2 [3]; [7]): 6.46 nM
hCB2 Emax ±SEM (human CB2 [4]): 101 ± 4 % CP55,940
EC50 (human CB2 [4]): 2.14 nM

COC(=O)[C@@H](NC(=O)c1cn(CCCCF)c2ccccc12)C(C)(C)C [Compound 7, methyl (S)-2-(1-(4-fluorobutyl)-1H-indole-3-carboxamido)-3,3-dimethylbutanoate]
Ki (human CB1 [1]; [5]): 13.2 nM
hCB1 Emax ±SEM (human CB1 [2]; AtT20-hCB1): 114 ± 3 % CP55,940
EC50 (human CB1 [2]; [6]): 3.43 nM
EC50 (human CB1 [2]; [8]): 3.39 nM
hCB2 Emax ±SEM (human CB2 [4]): 110 ± 3 % CP55,940
EC50 (human CB2 [4]): 2.87 nM

COC(=O)[C@@H](NC(=O)c1nn(CCCCF)c2ccccc12)C(C)(C)C [Compound 8, methyl (S)-2-(1-(4-fluorobutyl)-1H-indazole-3-carboxamido)-3,3-dimethylbutanoate]
Ki (human CB1 [1]; [5]): 6.2 nM
hCB1 Emax ±SEM (human CB1 [2]; AtT20-hCB1): 106 ± 3 % CP55,940
EC50 (human CB1 [2]; [8]): 0.407 nM
Ki (human CB2 [3]; [7]): 0.1 nM
Ki (human CB2 [3]; [9]): 0.12 nM
hCB2 Emax ±SEM (human CB2 [4]): 103 ± 5 % CP55,940
EC50 (human CB2 [4]): 3.28 nM

CC(C)(C)[C@H](NC(=O)c1cn(CCCCC#N)c2ccccc12)C(N)=O [Compound 9, (S)-N-(1-amino-3,3-dimethyl-1-oxobutan-2-yl)-1-(4-cyanobutyl)-1H-indole-3-carboxamide]
Ki (human CB1 [1]; [5]): 6.8 nM
hCB1 Emax ±SEM (human CB1 [2]; AtT20-hCB1): 115 ± 5 % CP55,940
EC50 (human CB1 [2]; [6]): 10.2 nM
Ki (human CB2 [3]; [7]): 5.5 nM
melting point: 101 to 103 °C
hCB2 Emax ±SEM (human CB2 [4]): 106 ± 6 % CP55,940
EC50 (human CB2 [4]): 10.4 nM

N#CCCCCn1cc(C(=O)N[C@@H](Cc2ccccc2)C(N)=O)c2ccccc21 [Compound 10, (S)-N-(1-amino-1-oxo-3-phenylpropan-2-yl)-1-(4-cyanobutyl)-1H-indole-3-carboxamide]
Ki (human CB1 [1]; [5]): 3310 nM
hCB1 maximal response at 10 μM (footnote d) (human CB1 [2]; AtT20-hCB1): submaximal agonist activity
hCB1 maximal response at 10 μM (footnote d) (human CB1 [2]; AtT20-hCB1, listed as APP-4CN-BUTICA (10)): 85 ± 3^d % CP55,940
hCB1 pEC50 ±SEM (human CB1 [2]; [10]): DNC^b
Ki (human CB2 [3]; [7]): 776 nM
melting point: 84 to 85 °C
hCB2 Emax ±SEM (human CB2 [4]): 95 ± 3 % CP55,940
EC50 (human CB2 [4]): 98.4 nM

CC(C)[C@H](NC(=O)c1nn(CCCCC#N)c2ccccc12)C(N)=O [Compound 11, (S)-N-(1-amino-3-methyl-1-oxobutan-2-yl)-1-(4-cyanobutyl)-1H-indazole-3-carboxamide]
Ki (human CB1 [1]; [5]): 43.7 nM
hCB1 Emax ±SEM (human CB1 [2]; AtT20-hCB1): 111 ± 5 % CP55,940
EC50 (human CB1 [2]; [6]): 26.3 nM
Ki (human CB2 [3]; [7]): 24 nM
hCB2 Emax ±SEM (human CB2 [4]): 103 ± 1 % CP55,940
EC50 (human CB2 [4]): 4.97 nM

CC(C)(C)[C@H](NC(=O)c1nn(CCCCC#N)c2ccccc12)C(N)=O [Compound 12, (S)-N-(1-amino-3,3-dimethyl-1-oxobutan-2-yl)-1-(4-cyanobutyl)-1H-indazole-3-carboxamide]
Ki (human CB1 [1]; [5]): 8.13 nM
hCB1 Emax ±SEM (human CB1 [2]; AtT20-hCB1): 109 ± 2 % CP55,940
EC50 (human CB1 [2]; [8]): 0.331 nM
Ki (human CB2 [3]; [7]): 2.57 nM
melting point: 82 to 86 °C
hCB2 Emax ±SEM (human CB2 [4]): 96 ± 2 % CP55,940
EC50 (human CB2 [4]): 1.76 nM

N#CCCCCn1nc(C(=O)N[C@@H](Cc2ccccc2)C(N)=O)c2ccccc21 [Compound 13, (S)-N-(1-amino-1-oxo-3-phenylpropan-2-yl)-1-(4-cyanobutyl)-1H-indazole-3-carboxamide]
Ki (human CB1 [1]; [5]): 1100 nM
Ki (human CB1 [1]; [11]): 1070 nM
hCB1 maximal response at 10 μM (footnote d) (human CB1 [2]; AtT20-hCB1): 104 % CP55,940
hCB1 maximal response at 10 μM (footnote d) (human CB1 [2]; AtT20-hCB1, listed as APP-4CN-BUTINACA (13)): 104 ± 3^d % CP55,940
hCB1 pEC50 ±SEM (human CB1 [2]; [10]): DNC^b
Ki (human CB2 [3]; [7]): 170 nM
Ki (human CB2 [3]; [9]): 166 nM
hCB2 Emax ±SEM (human CB2 [4]): 107 ± 11 % CP55,940
EC50 (human CB2 [4]): 74.1 nM

COC(=O)[C@@H](NC(=O)c1cn(CCCCC#N)c2ccccc12)C(C)C [Compound 17, methyl (1-(4-cyanobutyl)-1H-indole-3-carbonyl)-L-valinate]
Ki (human CB1 [1]; [5]): 159 nM
hCB1 Emax ±SEM (human CB1 [2]; AtT20-hCB1): 105 ± 3 % CP55,940
EC50 (human CB1 [2]; [6]): 50.8 nM
Ki (human CB2 [3]; [7]): 85.1 nM
hCB2 Emax ±SEM (human CB2 [4]): 95 ± 3 % CP55,940
EC50 (human CB2 [4]): 13.5 nM

COC(=O)[C@@H](NC(=O)c1nn(CCCCC#N)c2ccccc12)C(C)(C)C [Compound 20, methyl (S)-2-(1-(4-cyanobutyl)-1H-indazole-3-carboxamido)-3,3-dimethylbutanoate]
Ki (human CB1 [1]; [5]): 1.29 nM
hCB1 Emax ±SEM (human CB1 [2]; AtT20-hCB1): 113 ± 2 % CP55,940
EC50 (human CB1 [2]; [6]): 0.72 nM
Ki (human CB2 [3]; [7]): 0.295 nM
hCB2 Emax ±SEM (human CB2 [4]): 101 ± 2 % CP55,940
EC50 (human CB2 [4]): 3.56 nM

COC(=O)[C@@H](NC(=O)c1cn(CCCCC#N)c2ncccc12)C(C)C [Compound 22, methyl (1-(4-cyanobutyl)-1H-pyrrolo[2,3-b]pyridine-3-carbonyl)-L-valinate]
Ki (human CB1 [1]; [5]): 1510 nM
hCB1 Emax ±SEM (human CB1 [2]; AtT20-hCB1): 114 ± 7 % CP55,940
EC50 (human CB1 [2]; [6]): 430 nM
Ki (human CB2 [3]; [7]): 316 nM
hCB2 Emax ±SEM (human CB2 [4]): 95 ± 4 % CP55,940
EC50 (human CB2 [4]): 68.3 nM

COC(=O)[C@@H](NC(=O)c1cn(CCCCC#N)c2ncccc12)C(C)(C)C [Compound 23, methyl (S)-2-(1-(4-cyanobutyl)-1H-pyrrolo[2,3-b]pyridine-3-carboxamido)-3,3-dimethylbutanoate]
Ki (human CB1 [1]; [5]): 9.2 nM
Ki (human CB1 [1]; [11]): 9.33 nM
hCB1 Emax ±SEM (human CB1 [2]; AtT20-hCB1): 114 ± 5 % CP55,940
EC50 (human CB1 [2]; [6]): 10.3 nM
Ki (human CB2 [3]; [7]): 2.4 nM
Ki (human CB2 [3]; [9]): 2.45 nM
hCB2 Emax ±SEM (human CB2 [4]): 106± 5 % CP55,940
EC50 (human CB2 [4]): 12.6 nM

CC(C)[C@H](NC(=O)c1cn(CCCCF)c2ncccc12)C(N)=O [Compound 31, (S)-N-(1-amino-3-methyl-1-oxobutan-2-yl)-1-(4-fluorobutyl)-1H-pyrrolo[2,3-b]pyridine-3-carboxamide]
Ki (human CB1 [1]; [11]): > 10000 nM
hCB1 maximal response at 10 μM (footnote d) (human CB1 [2]; AtT20-hCB1): 82 ± 4^d % CP55,940
hCB1 pEC50 ±SEM (human CB1 [2]; [10]): DNC^b
Ki (human CB2 [3]; [7]): 1400 nM
Ki (human CB2 [3]; [9]): 1380 nM
hCB2 Emax ±SEM (human CB2 [4]): 98 ± 4 % CP55,940
EC50 (human CB2 [4]): 137 nM

COC(=O)[C@@H](NC(=O)c1nn(CCCCF)c2ccccc12)C(C)C [Compound 36, methyl (1-(4-fluorobutyl)-1H-indazole-3-carbonyl)-L-valinate]
Ki (human CB1 [1]; [11]): 31.6 nM
hCB1 Emax ±SEM (human CB1 [2]; AtT20-hCB1): 103 ± 2 % CP55,940
EC50 (human CB1 [2]; [6]): 3.93 nM
Ki (human CB2 [3]; [7]): 1.6 nM
Ki (human CB2 [3]; [9]): 1.55 nM
hCB2 Emax ±SEM (human CB2 [4]): 100 ± 2 % CP55,940
EC50 (human CB2 [4]): 3.76 nM

COC(=O)[C@H](Cc1ccccc1)NC(=O)c1nn(CCCCF)c2ccccc12 [Compound 37, methyl (1-(4-fluorobutyl)-1H-indazole-3-carbonyl)-L-phenylalaninate]
Ki (human CB1 [1]; [11]): 33.9 nM
hCB1 Emax ±SEM (human CB1 [2]; AtT20-hCB1): 106 ± 3 % CP55,940
EC50 (human CB1 [2]; [6]): 5.62 nM
Ki (human CB2 [3]; [7]): 0.5 nM
Ki (human CB2 [3]; [9]): 0.457 nM
hCB2 Emax ±SEM (human CB2 [4]): 101 ± 3 % CP55,940
EC50 (human CB2 [4]): 4.65 nM
